Measured values published in patent US4005093A, “2-Naphthyl-lower-alkylamines” (Sterling Drug Inc., priority 1975, dated 1977).
Counter-ions that a name gives are not always drawn.

Key:
[1] = test system: carrageenin-induced foot edema; experiment: inhibition of carrageenin-induced foot edema test (carrageenin edema, CE); assay type: in vivo; settings: oral
Experimental: (§1) Anti-inflammatory activity was determined using (1) the inhibition of carrageenin-induced foot edema test essentially described by Van Arman et al., J. Pharmacol. Exptl. Therap. 150, 328 (1965) as modified by Winter et al., Proc. Soc. Exp. Biol. and Med. 111, 544 (1962) and (2) a modification of the inhibition of adjuvant-induced arthritis test described by Pierson, J. Chronic Diseases 16, 863 (1963) and Glenn et al., Am. J. Vet. Res. 26, 1180 (1965). […] Data so-obtained, given in terms of percent inhibition at a dose expressed in terms of […] (μM)/kg., are given below. All data were obtained on oral administration.

[2] = test system: adjuvant-induced arthritis; experiment: modification of the inhibition of adjuvant-induced arthritis test (adjuvant arthritis, AA); assay type: in vivo; settings: oral
Experimental: as §1

[3] = dose 0.08 (millimoles (μM)/kg [sic]), hydrochloride
[4] = dose 0.324 millimoles (μM)/kg [sic], hydrochloride
[5] = dose 0.16 millimoles (μM)/kg [sic], hydrochloride
[6] = dose 0.01 (millimoles (μM)/kg [sic])
[7] = dose 0.04 millimoles (μM)/kg [sic], hydrochloride
[8] = dose 0.08 (millimoles (μM)/kg [sic])
[9] = dose 0.324 millimoles (μM)/kg [sic]
[10] = dose 0.005 (printed millimoles (μM)/kg)
[11] = dose 0.02 (printed millimoles (μM)/kg)
[12] = dose 0.16 millimoles (μM)/kg [sic]

`COc1ccc2cc(C(C)CN3CCCCC3CC3CCCCC3)ccc2c1.Cl` (stereo not drawn) [1 (γ-Isomer), 2-cyclohexylmethyl-1-[2-(6-methoxy-2-naphthyl)-2-methylethyl]-piperidine hydrochloride] was tested, and the “CE (% Inhib./μM/kg.)” value [1, 3] was 24%, the “CE (% Inhib./μM/kg.)” value [1, 4] was 45% and the “AA (% Inhib./μM/kg.)” value ([2]; dose 0.018 (printed millimoles (μM)/kg)) was 2%. The “AA (% Inhib./μM/kg.)” value ([2]; dose 0.053 (printed millimoles (μM)/kg)) was 49% and the “AA (% Inhib./μM/kg.)” value [2, 5] was 86%.

For `COc1ccc2cc(C(C)CN3CCCCC3CC3CCCCC3)ccc2c1.Cl` (stereo not drawn) [1 (α-Isomer), 2-cyclohexylmethyl-1-[2-(6-methoxy-2-naphthyl)-2-methylethyl]piperidine hydrochloride], the “CE (% Inhib./μM/kg.)” value [1, 3] was 14%, the “CE (% Inhib./μM/kg.)” value [1, 4] was 40% and the “AA (% Inhib./μM/kg.)” value [2, 6] was 0%. The “AA (% Inhib./μM/kg.)” value [2, 7] was 8% and the “AA (% Inhib./μM/kg.)” value [2, 5] was 86%.

For `COc1ccc2cc(C(C)CN3CCC(CCC4CCCCC4)CC3)ccc2c1` (stereo not drawn) [Example 4, 4-(2-cyclohexylethyl)-1-[2-(6-methoxy-2-naphthyl)-2-methylethyl]-piperidine], the “CE (% Inhib./μM/kg.)” value [1, 8] was 22%, the “CE (% Inhib./μM/kg.)” value [1, 9] was 38% and the “AA (% Inhib./μM/kg.)” value [2, 10] was 0%. The “AA (% Inhib./μM/kg.)” value [2, 11] was 0% and the “AA (% Inhib./μM/kg.)” value [2, 8] was 34%.

`CCN(CC)CCCC(C)NCC(C)c1ccc2cc(OC)ccc2c1` (stereo not drawn) [Example 6, N-[2-(6-methoxy-2-naphthyl)-2-methylethyl]-N-[5-(N',N'-diethyl-amino)-2-pentyl]amine] was tested, and the “CE (% Inhib./μM/kg.)” value [1, 8] was 28%, the “CE (% Inhib./μM/kg.)” value [1, 9] was 26% and the “AA (% Inhib./μM/kg.)” value [2, 12] was 73%.

With `COc1ccc2cc(CCN3CCCCC3CC3CCCCC3)ccc2c1` (stereo not drawn) [Example 5, 2-cyclohexylmethyl-1-[2-(6-methoxy-2-naphthyl)ethyl]piperidine] the “CE (% Inhib./μM/kg.)” value [1, 8] was 29%, the “CE (% Inhib./μM/kg.)” value [1, 9] was 68% and the “AA (% Inhib./μM/kg.)” value [2, 9] was 55%.

For `COc1ccc2cc(C(C)CN3CCCCC3CC3CCCCC3)ccc2c1.Cl` (stereo not drawn) [1 (β-Isomer), 2-cyclohexylmethyl-1-[2-(6-methoxy-2-naphthyl)-2-methylethyl]piperidine hydrochloride], the “CE (% Inhib./μM/kg.)” value [1, 3] was 16%, the “CE (% Inhib./μM/kg.)” value [1, 4] was 47% and the “AA (% Inhib./μM/kg.)” value [2, 6] was 0%. The “AA (% Inhib./μM/kg.)” value [2, 7] was 12% and the “AA (% Inhib./μM/kg.)” value [2, 5] was 89%.

In the case of `COc1ccc2cc(C(C)CN3CCCCC3C3CCCCC3)ccc2c1` (stereo not drawn) [Example 2, 2-cyclohexyl-1-[2-(6-methoxy-2-naphthyl)-2-methylethyl-]piperidine hydrochloride], the “CE (% Inhib./μM/kg.)” value [1, 8] is reported as 35%, the “CE (% Inhib./μM/kg.)” value [1, 9] is reported as 69% and the “AA (% Inhib./μM/kg.)” value [2, 6] is reported as 17%. For the same compound, the “AA (% Inhib./μM/kg.)” value ([2]; dose 0.04 millimoles (μM)/kg [sic]) was 31% and the “AA (% Inhib./μM/kg.)” value [2, 12] was 61%.

For `COc1ccc2cc(C(C)CN3CCCCC3CCC3CCCCC3)ccc2c1` (stereo not drawn) [Example 3, 2-(2-cyclohexylethyl)-1-[2-(6-methoxy-2-naphthyl)-2-methylethyl]-piperidinehydrochloride], the “CE (% Inhib./μM/kg.)” value [1, 8] was 66%, the “CE (% Inhib./μM/kg.)” value [1, 9] was 52% and the “AA (% Inhib./μM/kg.)” value [2, 10] was 0%. For the same compound, the “AA (% Inhib./μM/kg.)” value [2, 11] was 40% and the “AA (% Inhib./μM/kg.)” value [2, 8] was 16%.
